Laboratory results reported in publication PMC5479551, “Development of a range of fluorescent reagentless biosensors for ATP, based on malonyl-coenzyme A synthetase” (PLoS ONE, 2017).
“And” between values parts separate entries of the source, which are not always exact repeats. Equal values may be shown once.

Key:
[1] = biological target: T1, S170A Rho-MatB (Rhodopseudomonas palustris, UniProt Q6ND88, C106A/K488A/Q457C/R286C/S170A); test: Fluorescence titration (excitation 553 nm, emission 571 nm) of 0.5 µM fully purified Rho-MatB with ADP in 50 mM Hepes pH 7.0, 100 mM NaCl, 10 mM MgCl2, 0.3 mg/ml BSA, 20°C, quadratic binding fit.
T1 construct: His6-tag, Rho-MatB background, two tetramethylrhodamines (5-IATR)
T1 sequence (Q6ND88 entry or part of it C106A/S170A/R286C/Q457C/K488A): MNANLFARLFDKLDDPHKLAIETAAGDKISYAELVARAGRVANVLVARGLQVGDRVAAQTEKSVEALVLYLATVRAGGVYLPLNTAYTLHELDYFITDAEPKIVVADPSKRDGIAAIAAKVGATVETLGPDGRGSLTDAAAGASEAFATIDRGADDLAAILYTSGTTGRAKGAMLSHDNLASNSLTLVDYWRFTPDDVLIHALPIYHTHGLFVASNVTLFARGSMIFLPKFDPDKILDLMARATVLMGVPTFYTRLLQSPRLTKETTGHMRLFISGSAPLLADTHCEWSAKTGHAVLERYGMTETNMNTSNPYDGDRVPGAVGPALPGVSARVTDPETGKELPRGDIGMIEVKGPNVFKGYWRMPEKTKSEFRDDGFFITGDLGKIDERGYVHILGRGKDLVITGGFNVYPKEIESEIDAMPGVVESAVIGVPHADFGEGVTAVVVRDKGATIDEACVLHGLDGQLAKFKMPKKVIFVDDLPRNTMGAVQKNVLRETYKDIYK
Description: (§1) Data from titrations to measure nucleotide binding were corrected for dilution and analyzed with a quadratic binding curve using Grafit software: F=Fmin+(Fmax−Fmin)×(Kd+L+P−(Kd+L+P)^2−4×P×L)/2×P where P and L are the total concentrations of protein and ligand, respectively, Kd is the dissociation constant, and Fmin and Fmax are the fluorescence intensities of the free and ligand- bound protein, respectively.
(§2) Fig 2 Nucleotide affinity for variants of Rho-MatB. Titration of ATP (circles) and ADP (triangles) to (A) 0.5 µM Rho-MatB T167A, (B) 0.5 μM Rho-MatB T303A; (C) 0.5 μM Rho-MatB S170A. Measurements are shown for one representative experiment and were in 50 mM Hepes pH 7.0, 100 mM NaCl, 10 mM MgCl2, 0.3 mg ml^-1 bovine serum albumin at 20°C. Excitation was at 553 nm, emission at 571 nm. The dissociation constants and fluorescence ratios were obtained using a quadratic binding equation (see Methods) and are listed in Table 2. The drop lines are to indicate the dissociation constants. Data are normalized to the intensity in the absence of nucleotide.
(§3) The affinity for ATP and ADP was determined by measuring the fluorescence at different concentrations of the nucleotide (Fig 2A and 2B). Both variants show similar fluorescent changes with ATP compared to the parent Rho-MatB, but the dissociation constants (Kd) are much higher (Table 2). In contrast, the affinity of ADP was much less affected by the mutations, remaining very weak (Table 2). The change in ATP affinity presumably reflects the importance of hydrogen-bonding interactions with the triphosphate, decreased by mutating to alanine.

[2] = biological target: T2, T167A Rho-MatB (Rhodopseudomonas palustris, UniProt Q6ND88, C106A/K488A/Q457C/R286C/T167A); test: as above
T2 construct: His6-tag, Rho-MatB background, two tetramethylrhodamines (5-IATR)
T2 sequence (Q6ND88 entry or part of it C106A/T167A/R286C/Q457C/K488A): as the sequence (Q6ND88 entry or part of it C106A/S170A/R286C/Q457C/K488A) above, with T167A, A170S counted along it
Description: as §1, §2, §3

[3] = biological target: T3, Parent (Rho-MatB) (Rhodopseudomonas palustris, UniProt Q6ND88, C106A/K488A/Q457C/R286C); test: as above
T3 construct: N-terminal His6-tag, expressed in E. coli; two tetramethylrhodamines (5-IATR) on introduced cysteines
T3 sequence (Q6ND88 entry or part of it C106A/R286C/Q457C/K488A): as the sequence (Q6ND88 entry or part of it C106A/S170A/R286C/Q457C/K488A) above, with A170S counted along it
Description: as §1, §2, §3

[4] = biological target: T4, T303A Rho-MatB (Rhodopseudomonas palustris, UniProt Q6ND88, C106A/K488A/Q457C/R286C/T303A); test: as above
T4 construct: His6-tag, Rho-MatB background, two tetramethylrhodamines (5-IATR)
T4 sequence (Q6ND88 entry or part of it C106A/R286C/T303A/Q457C/K488A): as the sequence (Q6ND88 entry or part of it C106A/S170A/R286C/Q457C/K488A) above, with A170S, T303A counted along it
Description: as §1, §2, §3

[5] = biological target: T5, pyruvate kinase (Oryctolagus cuniculus, UniProt P11974); test: Steady-state pyruvate kinase assay using T303A variant ATP biosensor; assay type: biochemical, rabbit; details: 50 mM HEPES pH 7.2, 100 mM KCl, 10 mM MgCl2, 25°C; 500 μM phosphoenolpyruvate; 1 μM T303A rho-MatB as ATP sensor; read-out: Km for ADP
T5 construct: pyruvate kinase (rabbit muscle from Sigma); purchased Sigma; host or cells: rabbit muscle (tissue-derived)
T5 sequence (P11974 whole entry): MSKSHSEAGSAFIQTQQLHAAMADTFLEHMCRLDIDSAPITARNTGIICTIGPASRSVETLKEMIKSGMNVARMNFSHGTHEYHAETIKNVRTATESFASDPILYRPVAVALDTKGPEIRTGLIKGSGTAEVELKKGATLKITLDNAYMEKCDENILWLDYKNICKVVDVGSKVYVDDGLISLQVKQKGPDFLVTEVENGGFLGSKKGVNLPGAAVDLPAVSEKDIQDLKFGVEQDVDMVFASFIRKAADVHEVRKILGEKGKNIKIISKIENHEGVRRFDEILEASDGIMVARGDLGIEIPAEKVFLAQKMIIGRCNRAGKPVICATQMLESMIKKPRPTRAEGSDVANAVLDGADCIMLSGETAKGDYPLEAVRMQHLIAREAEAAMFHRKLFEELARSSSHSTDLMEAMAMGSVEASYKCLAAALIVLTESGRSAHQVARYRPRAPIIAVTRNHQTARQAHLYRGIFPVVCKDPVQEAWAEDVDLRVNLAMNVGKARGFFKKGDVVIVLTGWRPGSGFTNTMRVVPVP
Method: Steady-state activity measurements of pyruvate kinase (rabbit muscle from Sigma) were obtained using fluorescence on a CLARIOstar microplate reader (BMG Labtech). Assays were set up in 100 μl or 40 μl using 96-well using 384-well polystyrene microplates (low-protein-binding, Corning, USA) respectively.
We show one type of steady-state assay using a weak-binding variant, namely T303A, and a well understood enzyme system. This variant was used to measure the Km for ADP with pyruvate kinase (Fig 7). This measurement would not have been possible with the original reagent, as it requires measurements with hundreds of micromolar ADP. The assay measured formation of ATP as a function of time and made use of calibrations of the fluorescence signal at 0 and 500 μM ADP.
Fig 7 Test assay, measurement of the Km of ADP with pyruvate kinase using T303A variant ATP biosensor. The assay was run in multiwell format in 50 mM HEPES buffer pH 7.2, 100 mM KCl, 10 mM MgCl2, 0.3 mg ml^-1 bovine serum albumin at 25°C. The assay components were 500 μM phosphoenolpyruvate, 0.005 unit ml^-1 pyruvate kinase, 1 μM T303A rho-MatB and the micromolar concentrations of ADP shown on the inset panel for an illustrative set of traces. The data are shown as ATP production rates, using calibrations done at 0–20 μM ATP at 0 μM ADP and with ADP to make 500 μM total nucleotide concentration. […]

[6] = biological target: T3, Parent (Rho-MatB); test: Competition fluorescence titration of ATP into 0.5 µM parent Rho-MatB at fixed AMP (500 or 1000 µM) in 50 mM Hepes pH 7.0, 100 mM NaCl, 10 mM MgCl2, 0.3 mg/ml BSA, 20°C.; assay type: binding; details: read-out: KAMP (ATP titrated at fixed AMP)
Method: Fig 6 Competition titrations between ATP and AMP binding to Rho-MatB variants. Titrations were under conditions as Fig 2, using 0.5 μM of the Rho-MatB variant. (A) Titration of AMP into Rho-MatB complex with a fixed concentration of ATP: 7 μM for the parent Rho-MatB (“wt”) and S170A, 50 μM for T303A and 150 μM for T167A. One representative data set is shown. Fluorescence changes were fit to A0[ATP]/(K' +[ATP]), where the apparent dissociation constant for ATP, K' = KATP(1 + [AMP]/KAMP). KATP and KAMP are the actual dissociation constants for ATP and AMP and A0 is the total fluorescence change at that ATP concentration. Taking the previously obtained values for KATP, the values of KAMP were 169 ± 23 μM for the parent Rho-MatB, 225 ± 15 μM for S170A, and 300 ± 12 μM for T167A. […] Data were fitted to the equation above, giving KAMP as 233 ± 11 μM using 500 μM AMP and 255 ± 16 μM at 1000 μM AMP.
Doing the competition titration the other way round, fixing AMP, caused a shift in apparent dissociation constant of ATP. […] Alternatively, fitting the data as described in Fig 6 gave values for the AMP dissociation constant that were similar to those in Fig 6A. The amplitude of the signal changes only little with AMP, but the range of ATP concentrations over the maximal signal change, is increased as AMP increases

[7] = biological target: T1, S170A Rho-MatB; test: Fluorescence titration (excitation 553 nm, emission 571 nm) of 0.5 µM fully purified Rho-MatB with ATP in 50 mM Hepes pH 7.0, 100 mM NaCl, 10 mM MgCl2, 0.3 mg/ml BSA, 20°C, quadratic binding fit.
Description: as §1, §2, §3

[8] = biological target: T2, T167A Rho-MatB; test: as above
Description: as §1, §2, §3

[9] = biological target: T3, Parent (Rho-MatB); test: as above
Description: as §1, §2, §3

[10] = biological target: T4, T303A Rho-MatB; test: as above
Description: as §1, §2, §3

[11] = biological target: T1, S170A Rho-MatB; test: Survey fluorescence titration of tetramethylrhodamine-labelled MatB variants with ATP in 50 mM Tris.HCl pH 7.5, 150 mM NaCl, 10 mM MgCl2, 0.3 mg/ml BSA, 20°C, without full optimization of labelling and purification.; assay type: binding
Method: as §1
(§4) The labeled proteins were then tested for a fluorescence change upon ATP binding in the presence of Mg^2+ (Table 1). For variants showing a significant fluorescence change, the affinity for ATP was determined by titration (Table 1).

[12] = biological target: T6, Y300A Rho-MatB (Rhodopseudomonas palustris, UniProt Q6ND88, C106A/K488A/Q457C/R286C/Y300A); test: as above; assay type: binding
T6 construct: His6-tag, Rho-MatB background, two tetramethylrhodamines (5-IATR)
T6 sequence (Q6ND88 entry or part of it C106A/R286C/Y300A/Q457C/K488A): as the sequence (Q6ND88 entry or part of it C106A/S170A/R286C/Q457C/K488A) above, with A170S, Y300A counted along it
Method: as §1, §4

[13] = biological target: T2, T167A Rho-MatB; test: as above; assay type: binding
Method: as §1, §4

[14] = biological target: T3, Parent (Rho-MatB); test: as above; assay type: binding
Method: as §1, §4

[15] = biological target: T7, S164A Rho-MatB (Rhodopseudomonas palustris, UniProt Q6ND88, C106A/K488A/Q457C/R286C/S164A); test: as above; assay type: binding
T7 construct: His6-tag, Rho-MatB background, two tetramethylrhodamines (5-IATR)
T7 sequence (Q6ND88 entry or part of it C106A/S164A/R286C/Q457C/K488A): as the sequence (Q6ND88 entry or part of it C106A/S170A/R286C/Q457C/K488A) above, with S164A, A170S counted along it
Method: as §1, §4

[16] = biological target: T4, T303A Rho-MatB; test: as above; assay type: binding
Method: as §1, §4

[17] = biological target: T8, T303S Rho-MatB (Rhodopseudomonas palustris, UniProt Q6ND88, C106A/K488A/Q457C/R286C/T303S); test: as above; assay type: binding
T8 construct: His6-tag, Rho-MatB background, two tetramethylrhodamines (5-IATR)
T8 sequence (Q6ND88 entry or part of it C106A/R286C/T303S/Q457C/K488A): as the sequence (Q6ND88 entry or part of it C106A/S170A/R286C/Q457C/K488A) above, with A170S, T303S counted along it
Method: as §1, §4

[18] = biological target: T9, R299A Rho-MatB (Rhodopseudomonas palustris, UniProt Q6ND88, C106A/K488A/Q457C/R286C/R299A); test: as above; assay type: binding
T9 construct: His6-tag, Rho-MatB background, two tetramethylrhodamines (5-IATR)
T9 sequence (Q6ND88 entry or part of it C106A/R286C/R299A/Q457C/K488A): as the sequence (Q6ND88 entry or part of it C106A/S170A/R286C/Q457C/K488A) above, with A170S, R299A counted along it
Method: as §1, §4

[19] = biological target: T10, M302A Rho-MatB (Rhodopseudomonas palustris, UniProt Q6ND88, C106A/K488A/M302A/Q457C/R286C); test: as above; assay type: binding
T10 construct: His6-tag, Rho-MatB background, two tetramethylrhodamines (5-IATR)
T10 sequence (Q6ND88 entry or part of it C106A/R286C/M302A/Q457C/K488A): as the sequence (Q6ND88 entry or part of it C106A/S170A/R286C/Q457C/K488A) above, with A170S, M302A counted along it
Method: as §1, §4

[20] = biological target: T11, T166A Rho-MatB (Rhodopseudomonas palustris, UniProt Q6ND88, C106A/K488A/Q457C/R286C/T166A); test: as above; assay type: binding
T11 construct: His6-tag, Rho-MatB background, two tetramethylrhodamines (5-IATR)
T11 sequence (Q6ND88 entry or part of it C106A/T166A/R286C/Q457C/K488A): as the sequence (Q6ND88 entry or part of it C106A/S170A/R286C/Q457C/K488A) above, with T166A, A170S counted along it
Method: as §1, §4

[21] = biological target: T12, Q490A Rho-MatB (Rhodopseudomonas palustris, UniProt Q6ND88, C106A/K488A/Q457C/Q490A/R286C); test: as above; assay type: binding
T12 construct: His6-tag, Rho-MatB background, two tetramethylrhodamines (5-IATR)
T12 sequence (Q6ND88 entry or part of it C106A/R286C/Q457C/K488A/Q490A): as the sequence (Q6ND88 entry or part of it C106A/S170A/R286C/Q457C/K488A) above, with A170S, Q490A counted along it
Method: as §1, §4

[22] = biological target: T13, R169A Rho-MatB (Rhodopseudomonas palustris, UniProt Q6ND88, C106A/K488A/Q457C/R169A/R286C); test: as above; assay type: binding
T13 construct: His6-tag, Rho-MatB background, two tetramethylrhodamines (5-IATR)
T13 sequence (Q6ND88 entry or part of it C106A/R169A/R286C/Q457C/K488A): as the sequence (Q6ND88 entry or part of it C106A/S170A/R286C/Q457C/K488A) above, with R169A, A170S counted along it
Method: as §1, §4

[23] = biological target: T14, T163A Rho-MatB (Rhodopseudomonas palustris, UniProt Q6ND88, C106A/K488A/Q457C/R286C/T163A); test: as above; assay type: binding
T14 construct: His6-tag, Rho-MatB background, two tetramethylrhodamines (5-IATR)
T14 sequence (Q6ND88 entry or part of it C106A/T163A/R286C/Q457C/K488A): as the sequence (Q6ND88 entry or part of it C106A/S170A/R286C/Q457C/K488A) above, with T163A, A170S counted along it
Method: as §1, §4

[24] = biological target: T15, H207A Rho-MatB (Rhodopseudomonas palustris, UniProt Q6ND88, C106A/H207A/K488A/Q457C/R286C); test: as above; assay type: binding
T15 construct: His6-tag, Rho-MatB background, two tetramethylrhodamines (5-IATR)
T15 sequence (Q6ND88 entry or part of it C106A/H207A/R286C/Q457C/K488A): as the sequence (Q6ND88 entry or part of it C106A/S170A/R286C/Q457C/K488A) above, with A170S, H207A counted along it
Method: as §1, §4

[25] = biological target: T16, T208A Rho-MatB (Rhodopseudomonas palustris, UniProt Q6ND88, C106A/K488A/Q457C/R286C/T208A); test: as above; assay type: binding
T16 construct: His6-tag, Rho-MatB background, two tetramethylrhodamines (5-IATR)
T16 sequence (Q6ND88 entry or part of it C106A/T208A/R286C/Q457C/K488A): as the sequence (Q6ND88 entry or part of it C106A/S170A/R286C/Q457C/K488A) above, with A170S, T208A counted along it
Method: as §1, §4

[26] = biological target: T17, T167S Rho-MatB (Rhodopseudomonas palustris, UniProt Q6ND88, C106A/K488A/Q457C/R286C/T167S); test: as above; assay type: binding
T17 construct: His6-tag, Rho-MatB background, two tetramethylrhodamines (5-IATR)
T17 sequence (Q6ND88 entry or part of it C106A/T167S/R286C/Q457C/K488A): as the sequence (Q6ND88 entry or part of it C106A/S170A/R286C/Q457C/K488A) above, with T167S, A170S counted along it
Method: as §1, §4

Nc1ncnc2c1ncn2[C@@H]1O[C@H](COP(=O)(O)OP(=O)(O)O)[C@@H](O)[C@H]1O [ADP, adenosine 5'-diphosphate]
Kd [1]: 887 ± 25 µM | Kd [2]: 900 ± 28 µM | Kd [3]: 428 ± 50 µM | Kd [4]: 1840 ± 114 µM

Nc1ncnc2c1ncn2[C@@H]1O[C@H](COP(=O)(O)OP(=O)(O)O)[C@@H](O)[C@H]1O [ADP]
Km [5]: 56 ± 4 µM

Nc1ncnc2c1ncn2[C@@H]1O[C@H](COP(=O)(O)O)[C@@H](O)[C@H]1O [AMP, adenosine 5'-monophosphate]
Kd [6]: 233 µM and 255 µM

Nc1ncnc2c1ncn2[C@@H]1O[C@H](COP(=O)(O)OP(=O)(O)OP(=O)(O)O)[C@@H](O)[C@H]1O [ATP, adenosine 5'-triphosphate]
Kd [7]: 3.8 ± 0.1 µM | Kd [8]: 123 ± 4 µM | Kd [9]: 6.4 ± 0.6 µM | Kd [10]: 42 ± 2 µM | Kd [11]: 4 ± 0.1 µM | Kd [12]: 11.1 ± 0.5 µM | Kd [13]: 149 ± 7 µM | Kd [14]: 8.8 ± 0.3 µM | Kd [15]: 17.4 ± 0.4 µM | Kd [16]: 42 ± 1 µM | Kd [17]: 56 ± 3 µM | Kd [18]: 2.4 ± 0.1 µM | Kd [19]: 50 ± 5 µM | Kd [20]: 156 ± 7 µM | Kd [21]: 66 ± 3 µM | Kd [22]: 33 ± 1 µM | Kd [23]: 297 ± 27 µM | Kd [24]: 224 ± 18 µM | Kd [25]: 52 ± 5 µM | Kd [26]: 52 ± 1 µM
